Reference: ChEMBL document CHEMBL1152235, “(3R)-3-amino-4-(2,4,5-trifluorophenyl)-N-{4-[6-(2-methoxyethoxy)benzothiazol-2-yl]tetrahydropyran-4-yl}butanamide as a potent dipeptidyl peptidase IV inhibitor for the treatment of type 2 diabetes” (Bioorg Med Chem Lett, 2008)
The source made the active and inactive calls. The calls are words filed in the database; no cut-off is given here.

Key:
[1] = mouse, microsomes
Description: Metabolic stability in mouse microsomes assessed as intrinsic clearance

[2] = human, microsomes
[3] = rat, microsomes
[4] = system: Rattus norvegicus; test: Inhibition of DPP4 in po dosed Sprague-Dawley rat plasma; type: functional
[5] = system: Mus musculus; test: Reduction in blood glucose excursion in ICR mouse at 30 mg/kg, po administered 30 mins prior to glucose challenge by glucose tolerance test; type: functional, organism-based; design: dose 30 mg/kg

| SMILES | CL [1] [mL/min/mg] | CL [2] [mL/min/mg] | CL [3] [mL/min/mg] | Activity [4] | ED50 ([4]; read-out: ID50 (the source's name)) [mg/kg] | Activity [5] |
| --- | --- | --- | --- | --- | --- | --- |
| COCCOc1ccc2nc(C3(NC(=O)C[C@H](N)Cc4cc(Cl)ccc4F)CCS(=O)(=O)CC3)sc2c1 | 0.033 | 0.0638 | 0.0315 | – | – | – |
| N[C@@H](CC(=O)NC1(c2nc3ccc(OCCN4CCOCC4)cc3s2)CCS(=O)(=O)CC1)Cc1cc(F)c(F)cc1F | 0.0345 | 0.0928 | 0.026 | – | – | – |
| COc1ccc2nc(C3(NC(=O)C[C@H](N)Cc4ccccc4F)CCS(=O)(=O)CC3)sc2c1 | – | 0.0262 | 0.0515 | – | – | – |
| N[C@@H](CC(=O)NC1(c2nc3ccccc3s2)CCS(=O)(=O)CC1)Cc1ccccc1F | – | 0.0346 | 0.0734 | – | – | – |
| COCCOc1ccc2nc(C3(NC(=O)C[C@H](N)Cc4cc(F)c(F)cc4F)CCOCC3)sc2c1 | 0.0221 | 0.0219 | 0.0496 | Dose-dependent effect | 2.7 | Active |
| C[C@]12CC[C@H]3[C@@H](CCC4=CC(=O)CC[C@@]43C)[C@@H]1CC[C@@H]2O [TESTOSTERONE] | 0.3126 | 0.1093 | 0.3756 | – | – | – |
| N[C@@H](CC(=O)NC1(c2nc3ccccc3s2)CCS(=O)(=O)CC1)Cc1cc(F)c(F)cc1F | – | 0.0399 | 0.0644 | – | – | – |
| COCCOc1ccc2nc(C3(NC(=O)C[C@H](N)Cc4cc(F)c(F)cc4F)CCS(=O)(=O)CC3)sc2c1 | 0.0341 | 0.0466 | 0.0219 | – | – | – |
| COCCOc1ccc2nc(C3(NC(=O)C[C@H](N)Cc4cc(Cl)ccc4F)CCOCC3)sc2c1 | 0.0286 | 0.0342 | 0.0981 | – | – | – |
| COc1ccc2nc(C3(NC(=O)C[C@H](N)Cc4cc(F)c(F)cc4F)CCS(=O)(=O)CC3)sc2c1 | – | 0.0323 | 0.0423 | – | – | – |
